# According to patent US8691972B2, “Compounds and synthesis of tellurium-derivatized oligonucleotides for structural and functional studies” (priority 2009, dated 2014):
# “And” between values parts separate entries of the source, which are not always exact repeats. Identical values can stand only once.
# Columns and labels:
# [1] = test system: 3′-CGGACAAGAAG-5′ (complementary DNA strand); experiment: Thermo-denaturation (UV-melting, 260 nm) of non-self-complementary DNA duplex; type: physicochemical; conditions: for average Tm (melting temperature) of the duplex: duplex 5′-C(2′-TeX-dU)TCTTGTCCG-3′ & 3′-CGGACAAGAAG-5′, four measurements, 50 mM NaCl, 10 mM phosphate pH 6.5, 0.1 mM EDTA, 10 mM MgCl2, 0.5° C./min
# Procedure: (§1) Solution of the duplex DNA (2 uM) was prepared by dissolving the DNAs in a buffer containing 50 mM NaCl, 10 mM NaH2PO4—Na2HPO4 (pH 6.5), 0.1 mM EDTA and 10 mM MgCl2. The solution was heated to 70° C. for 2 min and cooled slowly to room temperature, followed by storing at 4° C. for overnight before measurement. The Tm curves were acquired at 260 nm by heating the samples from 5 to 70° C. at a rate of 0.5° C./min using Cary 300 UV-Visible Spectrophotometer with a temperature controller. […] The samples (1 mM duplex) were heated from 6 to 75° C. with a rate of 0.5° C./min. The red, blue and green curves represent the native, 2′-TeMe and 2′-TePh duplex, respectively, and are labelled in FIG. 6. The average Tm (four measurements) for each duplex is: 44.0±0.1° C. (native), 40.7±0.1° C. (2′-TeMe) and 36.8±0.2° C. (2′-TePh). […] The samples (1 mM duplex) were heated from 6 to 70° C. with a rate of 0.5° C./min. The circle (red), diamond (blue) and hexagon (purple) curves represent the native, 2′-TeMe and 2′-TePh DNA duplexes, respectively, with the averaged Tm (four times): 39.4° C. (native), 28.6° C. (2′-TeMe) and 23.4° C. (2′-TePh).
# [2] = test system: self-complementary duplex [5′-G(2′-TeX-dU)GTACAC-3′]2; experiment: Thermo-denaturation (UV-melting, 260 nm) of self-complementary DNA duplex; type: physicochemical; conditions: for averaged Tm of the duplex: self-complementary 8-mer 5′-G(2′-TeX-dU)GTACAC-3′, two modifications per duplex, four times, 0.5° C./min; for Tm decrease per modification: self-complementary duplex [5′-G(2′-TeX-dU)GTACAC-3′]2, compared with native; for Tm decrease compared with the native duplex: self-complementary duplex [5′-G(2′-TeX-dU)GTACAC-3′]2, double Te-modification
# Procedure: as §1
Substance,average Tm (melting temperature) of the duplex [1],difference in melting temperature between native and modified DNA ([1]; non-self-complementary duplex 5′-C(2′-TeX-dU)TCTTGTCCG-3′ and 5′-CGGACAAGA-AG-3′),averaged Tm of the duplex [2],Tm decrease per modification [2],Tm decrease compared with the native duplex [2]
5′-C(2′-TeX-dU)TCTTGTCCG-3′&3′-CGGACAAGAAG-5′ [2′-TeMe duplex],40.7±0.1 °C and 40.7 °C,3.3 °C,,,
5′-C(2′-TeX-dU)TCTTGTCCG-3′&3′-CGGACAAGAAG-5′ [2′-TePh duplex],36.8±0.2 °C and 36.8 °C,,,,
"5′-C(2′-TeX-dU)TCTTGTCCG-3′&3′-CGGACAAGAAG-5′ [native duplex, reference compound]",44.0±0.1 °C and 44.0 °C,,,,
"[5′-G(2′-TeX-dU)GTACAC-3′, X=Ph or Me]2 [2′-TeMe DNA duplex]",,,28.6 °C,5.0 °C,10 °C
"[5′-G(2′-TeX-dU)GTACAC-3′, X=Ph or Me]2 [2′-TePh DNA duplex]",,,23.4 °C,7.5 °C,15 °C
